Assays:
[1] = tested on: PCI-15B cells; assay: Gossypol dose response, MTT assays and cell counting; type: cell-based; settings: 72 h, day 3 after treatment
Procedure: In FIG. 7, PCI-15B cells were treated with 0, 0.003, 0.03, 3, and 30 μM gossypol. After 3 days, MTT assays and cell counting experiments were performed. […] Bars indicate standard error. […] The STAT3 decoy will be combined with gossypol to determine the antitumor efficacy of the combination treatment.

[2] = tested on: GAS-responsive element; assay: pGAS-Luc reporter gene assay in UM-22B SCCHN cells; type: cell-based; settings: UM-22B pGAS-Luc, 2 μg transfected, 24 hrs, IFN-γ stimulation
Procedure: FIG. 9 depicts the inhibition of reporter gene expression from GAS-responsive element in SCCHN cells. An SCCHN cell line, UM-22B, was used to generate a stable cell line expressing a pGAS-Luc reporter gene (pGAS-Luc plasmid carrying 4 repeats of GAS sequence: [NT] ID NO: 31), was obtained from Stratagene, Catalog number: 219091-51). The cells were transfected with 2 μg of the STAT3 decoy or the control mutant decoy. At 24 hrs after transfection, luciferase activity was measured and normalized to the total amount of protein.

[3] = molecular target: T1, STAT1 (Homo sapiens, UniProt P42224); assay: EMSA of STAT1 binding to the STAT3 decoy, PCI-15B nuclear extracts; settings: supershift
T1 construct: Nuclear protein extracts of PCI-15B cells, prepared according to standard methods, were used for the EMSA; endogenous in cells; host or cells: PCI-15B cells (nuclear extract)
T1 sequence (P42224 2-750 limits assumed): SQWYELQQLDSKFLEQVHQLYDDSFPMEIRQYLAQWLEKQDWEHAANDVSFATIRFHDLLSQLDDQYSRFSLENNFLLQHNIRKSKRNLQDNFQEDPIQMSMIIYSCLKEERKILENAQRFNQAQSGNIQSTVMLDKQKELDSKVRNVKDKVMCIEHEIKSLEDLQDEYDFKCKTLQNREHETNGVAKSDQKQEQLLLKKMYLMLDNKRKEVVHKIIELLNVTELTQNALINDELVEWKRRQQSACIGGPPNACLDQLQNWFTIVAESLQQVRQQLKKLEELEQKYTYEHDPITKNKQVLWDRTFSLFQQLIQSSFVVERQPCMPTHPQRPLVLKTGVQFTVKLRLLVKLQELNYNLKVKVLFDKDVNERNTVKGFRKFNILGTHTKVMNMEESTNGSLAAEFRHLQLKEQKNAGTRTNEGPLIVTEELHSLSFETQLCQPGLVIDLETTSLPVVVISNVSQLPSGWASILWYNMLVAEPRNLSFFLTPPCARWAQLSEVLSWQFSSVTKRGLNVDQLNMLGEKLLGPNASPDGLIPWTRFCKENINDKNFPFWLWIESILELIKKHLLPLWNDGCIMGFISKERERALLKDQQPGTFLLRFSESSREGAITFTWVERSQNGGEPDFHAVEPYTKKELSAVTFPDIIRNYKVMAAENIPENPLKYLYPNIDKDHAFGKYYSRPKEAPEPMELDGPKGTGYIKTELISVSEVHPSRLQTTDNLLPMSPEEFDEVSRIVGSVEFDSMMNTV
Procedure: FIG. 10 depicts binding of STAT 1 to the STAT3 decoy in an electrophoretic mobility shift assay (EMSA). Nuclear protein extracts of PCI-15B cells, prepared according to standard methods, were used for the EMSA. The specificity of STAT1 or STAT3 binding to the STAT3 decoy was determined by supershifting with STAT1- or STAT3-specific antibodies, or both. The experiment has been repeated more than 3 times.

[4] = tested on: p53-responsive element; assay: p53-Luciferase reporter gene assay in UM-22B SCCHN cells; type: cell-based; settings: UM-22B p53-Luc, 2 μg transfected, 24 hrs
Procedure: FIG. 8 depicts the inhibition of reporter gene expression from a p53-responsive element in SCCHN cells. An SCCHN cell line, UM-22B, was used to generate a stable cell line expressing a p53-Luciferase (p53-Luc) reporter gene (The p53-Luc plasmid carrying 14 repeats of p53 transcription recognition sequence: 5'-[…] ID NO: 30)), was obtained from Stratagene, Catalog number: 219085-51). The cells were transfected with 2 μg of the STAT3 decoy or the control mutant decoy. At 24 hrs after transfection, luciferase (Luc) activity was measured and normalized to the total amount of protein according to standard methods.

[5] = molecular target: T2, STAT3 (Homo sapiens, UniProt P40763); assay: EMSA of STAT3 decoy and derivative decoys, relative binding to STAT3
T2 construct: Whole cell extracts were prepared and EMSAs performed on 4% native polyacrylamide gels; endogenous in cells; host or cells: whole cell extracts
Procedure: Derivative decoys were identified by electrophoretic mobility shift assay, performed as described herein. Table 1 describes a number of STAT3 decoy derivatives along with their relative binding to STAT3.
Electrophoretic Mobility Shift Assay (EMSA). Whole cell extracts were prepared and EMSAs performed on 4% native polyacrylamide gels as described (Xi, S., et al. J Biol Chem, 278: 31574-31583, 2003 and Wong, P., etal. Mol Cell Biol, 14. 914-922, 1994). STAT3 activation was evaluated by using binding reactions with 20 μg of extracted protein, and radiolabeled high-affinity serum inducible element (hSIE) duplex oligonucleotide (Wagner et al., EMBO J. 9(13):4477-4484 (1990)). Quantification of the STAT3 signal was performed by scanning the SIF-A band using a Molecular Dynamics Personal Densitometer SI and IMAGEQUANT software. […] For supershift experiments, extracts were preincubated with STAT3 polyclonal antibody (C-20, Santa Cruz Biotechnology). Gel shift bands were quantified by densitometry and the Molecular Analyst software (AlphaDigidoc 1000, Alpha-Innotech) with normalization of each band to the positive control lysate run on that gel as described previously for STAT3 activation determinations (Grandis, J. R. et al. Proc Natl Acad Sci USA, 97: 4227-4232., 2000).

T2 sequence (P40763 2-770 limits assumed): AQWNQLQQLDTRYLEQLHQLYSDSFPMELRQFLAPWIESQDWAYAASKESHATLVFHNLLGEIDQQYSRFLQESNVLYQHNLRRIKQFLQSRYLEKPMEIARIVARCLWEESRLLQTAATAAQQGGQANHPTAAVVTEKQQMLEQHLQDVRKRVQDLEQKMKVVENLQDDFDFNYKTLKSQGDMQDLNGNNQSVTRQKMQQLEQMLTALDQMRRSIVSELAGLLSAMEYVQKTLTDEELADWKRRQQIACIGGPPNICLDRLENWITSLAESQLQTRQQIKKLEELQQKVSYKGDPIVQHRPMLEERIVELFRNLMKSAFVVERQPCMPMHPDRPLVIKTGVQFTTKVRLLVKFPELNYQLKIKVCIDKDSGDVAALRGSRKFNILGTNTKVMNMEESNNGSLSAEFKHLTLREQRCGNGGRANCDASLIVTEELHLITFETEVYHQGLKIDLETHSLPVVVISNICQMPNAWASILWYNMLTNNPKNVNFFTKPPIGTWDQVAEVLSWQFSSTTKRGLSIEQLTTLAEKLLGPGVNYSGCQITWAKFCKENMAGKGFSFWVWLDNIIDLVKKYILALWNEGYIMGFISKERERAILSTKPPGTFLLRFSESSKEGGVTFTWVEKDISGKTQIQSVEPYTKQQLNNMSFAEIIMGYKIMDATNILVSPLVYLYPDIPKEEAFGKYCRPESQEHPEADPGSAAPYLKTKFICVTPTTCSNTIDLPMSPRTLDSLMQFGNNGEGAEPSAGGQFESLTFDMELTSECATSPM

Molecule `Cc1cc2c(C(C)C)c(O)c(O)c(C=O)c2c(O)c1-c1c(C)cc2c(C(C)C)c(O)c(O)c(C=O)c2c1O` [gossypol, 2,2′-bis-(Formyl-1,6,7-trihydroxy-5-isopropyl-3-methylnaphthalene)] has an IC50 [1] of 297 nM.

In the case of “mutant control decoy: double-stranded oligonucleotide 5′-CATTTCCCTTAAATC-3′, 3′-GTAAAGGGAATTTAG-5′; same sequence as Mutant 3 of Table 1 [reference compound]”, the “reporter gene expression from a GAS-responsive element (STAT1 reporter activity)” value [2] is reported as “not”, the “binding to STAT1” value [3] is reported as “not” and the p53 reporter activity [4] is reported as “not”.

B1: longer sequence: 5′-AGCTTGTCGACATTTCCCGTAAATCGTCGAG-3′, 3′-…-5′; longer decoy initially examined (nucleic acid, listed as Homo sapiens)
sense: AGCTTGTCGACATTTCCCGTAAATCGTCGAG
antisense: CTCGACGATTTACGGGAAATGTCGACAAGCT
modifications: listed as DNA, chemistry not given here
notes: longer decoy initially examined
In the case of B1, the “blocking STAT3 activation” value [5] is reported as “effective”.

From patent US20060293264A1, “STAT3 decoy oligonucleotides and uses therefor” (priority 2004, published 2006)
